Where two headings read alike, the source gives them in different places.
Assays:
isolated Leukocytes = test: Design-of-experiments screening of antioxidants: intracellular free radical formation in PMA-stimulated isolated leukocytes (96-well plate, fluorescence kinetics); type: cell-based, human; conditions: model, other substances on a medium level, FIG. 9
Experimental: An often discussed therapeutic intervention is the addition of substances with antioxidative properties to balance the oxidative/antioxidative system. In our work we performed a systematic screening of such antioxidants, see FIG. 2. The screening was done in a 96-well-plate setup where isolated Leukocytes from healthy donors were pre-incubated with antioxidants for 1 hour. The chosen substances were N-acetyl-cysteine (NAC), gluconic acid (GA), glutathione (GSH) and vitamin […] fluorescence dye was added as a marker for intracellular free radical formation. Afterwards the cells were stimulated by phorbol-myristate-acetate (PMA) and free radical formation was recorded as fluorescence signal over time. The dye in this assay is membrane-permeable and non-fluorescent when it is added. Diffusing once into the cell, enzymes convert it to a readily oxidizable fluorescence dye and the intracellular formation of free radicals can be measured. In order to perform a systematic screening of these substances we would have had to carry out a lot of experiments. Due to the lack of blood donors we chose the methodology of design of experiments, see FIG. 3. Here an experimental plan is generated on statistical basis and a mathematical model can be established. In our case we chose a Centrum Composite Circumscribed-Design (CCC), which is a combination of a full-factorial and a Central Composite-Design (CCD) with a center point. Every single experiment was carried out three times. Besides saving many experiments an additional advantage is the consideration of interactions and quadratic influences. The software tool Mode generates the experimental plan where the combinations of the substances vary according to the chosen CCC-Design, see FIG. 4. Out of the measured fluorescence kinetics a free-radical-inhibition-ratio was calculated and implemented. A ratio of 1 relates to 100% inhibition of free radical formation. The obtained data was fitted by multiple linear regression analysis, see FIG. 5. The influence of single substances, its quadratic terms and interactions between the substances are considered in the shown equation. The quality of the model fit is defined in the summary plot. R^2 stands for regression, Q^2 for prediction quality, MV for model validity and Rep for reproducibility. […] The model has to be further optimised. To identify a model-weakness a closer look into the model is required.

ROS = test: ROS-inhibition with pre-incubation versus post-incubation (pre-stimulation) of cells; type: cell-based; conditions: single substances, FIGS. 31 to 34
Experimental: Therefore, the ROS-inhibition was tested in two different applications:
1. Pre-incubation (activation of cells after incubation with a substance or combination of substances according to the invention)
2. Post-incubation (addition of a substance or a combination of substances according to the invention after cell activation)
All substances or combinations thereof were tested in the same concentration ranges as in the screening of the combinations as described before.

WBC [1] = test: Reduction of ROS during perfusion through hollow fiber minimodule; type: cell-based, human; conditions: scavenger added to dialysis fluid, counter current, single pass, FIG. 19
Experimental: WBC were isolated from human blood donation. Cells were stimulated by PMA and after one hour incubation a fluorescence dye (H2DCF-DA) was added to the cells and incubated for another 25 mins. The cell suspension was pumped single pass through a hollow fiber minimodule. On the dialysate pathway dialysis fluid with or without radical scavenger was pumped in counter current. Fluorescence was measured at the dialyzer inlet and outlet and fluorescence reduction in the filter was calculated. Negative control: PBS-buffer without radical scavenger as dialysis fluid, see FIG. 19.

Interleukin 6 = test: IL-6 expression in LPS-incubated whole blood by flow cytometry; type: cell-based; conditions: whole blood with LPS, substance added directly or after 2 hrs, measured after 4 hrs; for expression of IL6: FIG. 21
Source text: Further we analyzed intracellular IL-6 concentrations—indicator of proinflammatory cell activation—by flow cytometry and by this we were also able to analyze the percentage of […]/activated cells, see FIG. 20. Shown are the results for intracellular IL-6. Further data were generated to show: • (1) That use of LPS as primary stimulus instead of PMA (i.e. other cell activation pathway) is inducing similar activation pattern. LPS could stand for a septic/bacterial infection environment instead of a pro-oxidative environment. • (2) That additional and more complete interventions in the pathophysiological sequence through scavengers reduces also the expression of cellular surface markers like CD11b (an indicator of enhanced adhesion to vascular walls).
Whole blood was incubated with LPS; ethyl pyruvate and N-acetyl-cysteine, respectively were added directly or after 2 hrs. Expression of Interleukin 6 was measured after 4 hrs with flow cytometer, see FIG. 21.

CD11b = CD11b expression of granulocytes in LPS-incubated whole blood by flow cytometry; type: cell-based; conditions: LPS 10/100 U/ml 45 minutes, then substance 4 hrs, FIG. 22
Experimental: Whole blood was incubated with LPS (10/100 U/ml) for 45 minutes. Ethyl pyruvate, N-acetyl-cysteine and gluconate were added to the stimulated system and incubated for 4 hrs. CD11b Expression of granulocytes was measured with flow cytometry, see FIG. 22.

White blood cells (WBC) = test: Inhibition of cell activation/ROS-generation by addition of free radical scavengers (H2DCF-DA fluorescence); type: cell-based, human; conditions: WBC preincubated 30-60 minutes, PMA or LPS stimulus, FIG. 15
Experimental: Other macromolecules with SH sites could also be applied.
White blood cells (WBC) were isolated from freshly donated human whole blood. This was done by collecting whole blood from healthy donors on Heparin anticoagulation. Leukocytes were isolated out of the whole blood with the help of an isolation gradient (Polymorphprep). Isolated Leukocytes were diluted in PBS or RPMI 1640 cell culture media and a concentration of 2×10^6/ml was chosen. The cells were stored at 37° in 5% CO2. The cells were preincubated with the substances at 37° C. for 30-60 minutes. Afterwards the cells were stimulated with 50 ng/ml PMA or 30 EU/ml LPS. For ROS-measurement a fluorescence dye (dichlorodihydrofluorescein-diacetate, H2DCF-DA) was added at 10 μM final concentration. The cells were incubated with the substance, the fluorescence dye and the activator for 2 hrs and the fluorescence intensity kinetics was measured over time. To compare the result between two substances, the fluorescence intensity at a certain time point, e.g. 30 minutes) was recorded. For comparison the fluorescence at a certain time is shown in the diagram in FIG. 15.

[2] = cited from earlier work
[3] = FIG. 25; cited from earlier work
WBC [4] = test: Inhibition of cell activation/ROS-generation by free radical scavengers via the membrane; type: cell-based, human; conditions: low flux membrane, incubation 60 mins, PMA, FIG. 17
Experimental: WBC were isolated from human blood donation. Cells were separated by a membrane from the second compartment which comprises a buffer-system containing a radical scavenger (incubation time 60 mins). Afterwards a fluorescence dye (H2DCF-DA) was added to the cells and incubated for 25 mins. Finally stimulation of WBCs was performed by PMA and fluorescence was measured over time, see FIG. 17.
Positive control: with stimulus (2nd compartment PBS-buffer),
Negative control: without stimulus (2nd compartment PBS-buffer)

Row | Structure (SMILES) | influence of the concentration of a single substance on the ROS-Inhibition ratio (isolated Leukocytes) | ROS inhibition (ROS) | free radicals on the blood side in the dialyzer and in the intracellular compartment (WBC [1]) | number of IL-6 positive cells (Interleukin 6) | expression of IL6 (Interleukin 6) | expression of CD11b adhesion marker (CD11b) | free radical formation (White blood cells (WBC)) | other results
1 | O=C1O[C@H]([C@@H](O)CO)C(O)=C1O [vitamin C] | negative gradient with increasing concentration | 20-80% |  |  |  |  |  | 
2 | CCOC(=O)C(C)=O [ethyl pyruvate] |  |  | free radicals are reduced | reduce the number of IL-6 positive cells | reduce the expression of IL6 | reduce expression of CD11b adhesion marker |  | 
3 | CC(=O)N[C@@H](CS)C(=O)O [N-acetyl-cysteine] | quadratic character | 60-80% | free radicals are reduced | reduce the number of IL-6 positive cells | reduce the expression of IL6 | reduce expression of CD11b adhesion marker | able to inhibit free radical formation | tolerability of rather high plasma levels ([2]; application as an antidote in acute situations): well tolerated; plasma levels ([2]; intravenous application, compared with oral): higher plasma levels; bioavailability ([2]; oral application): poor bioavailability; plasma levels ([2]; oral application): 3 to 30 µM; plasma level at which first beneficial effects could be shown [3]: 12 µM
4 | CC(=O)N[C@H]1C(O)O[C@H](CO)[C@@H](O)[C@@H]1O (stereo partly drawn) [N-acetyl-glucosamine] |  |  |  |  |  |  | able to inhibit free radical formation | 
5 | O=C(O)[C@H](O)[C@@H](O)[C@H](O)[C@H](O)CO [gluconic acid] | quadratic character | 15-30% |  |  |  | reduce expression of CD11b adhesion marker | able to inhibit free radical formation | free radical formation, scavenger acting through the membrane (WBC [4]): capable to inhibit
6 | N[C@@H](CCC(=O)N[C@@H](CS)C(=O)NCC(=O)O)C(=O)O [glutathione] | negative gradient with increasing concentration | 55-65% |  |  |  |  | able to inhibit free radical formation | 

Reference: patent US20100204328A1, “Solution and Method to Reduce, Treat and/or Prevent Oxidative Stress and Cell Activation” (priority 2006, published 2010)
